14 compounds from patent US12209081B2 (Katholieke Universiteit Leuven, priority 2020, dated 2025) can be followed below.

Bounds are passed on as bounds.

Chain of mouse TRPM3α2 (mTRPM3) ion channel (J9SQF3 other isoform, or with tags, fused parts or gaps): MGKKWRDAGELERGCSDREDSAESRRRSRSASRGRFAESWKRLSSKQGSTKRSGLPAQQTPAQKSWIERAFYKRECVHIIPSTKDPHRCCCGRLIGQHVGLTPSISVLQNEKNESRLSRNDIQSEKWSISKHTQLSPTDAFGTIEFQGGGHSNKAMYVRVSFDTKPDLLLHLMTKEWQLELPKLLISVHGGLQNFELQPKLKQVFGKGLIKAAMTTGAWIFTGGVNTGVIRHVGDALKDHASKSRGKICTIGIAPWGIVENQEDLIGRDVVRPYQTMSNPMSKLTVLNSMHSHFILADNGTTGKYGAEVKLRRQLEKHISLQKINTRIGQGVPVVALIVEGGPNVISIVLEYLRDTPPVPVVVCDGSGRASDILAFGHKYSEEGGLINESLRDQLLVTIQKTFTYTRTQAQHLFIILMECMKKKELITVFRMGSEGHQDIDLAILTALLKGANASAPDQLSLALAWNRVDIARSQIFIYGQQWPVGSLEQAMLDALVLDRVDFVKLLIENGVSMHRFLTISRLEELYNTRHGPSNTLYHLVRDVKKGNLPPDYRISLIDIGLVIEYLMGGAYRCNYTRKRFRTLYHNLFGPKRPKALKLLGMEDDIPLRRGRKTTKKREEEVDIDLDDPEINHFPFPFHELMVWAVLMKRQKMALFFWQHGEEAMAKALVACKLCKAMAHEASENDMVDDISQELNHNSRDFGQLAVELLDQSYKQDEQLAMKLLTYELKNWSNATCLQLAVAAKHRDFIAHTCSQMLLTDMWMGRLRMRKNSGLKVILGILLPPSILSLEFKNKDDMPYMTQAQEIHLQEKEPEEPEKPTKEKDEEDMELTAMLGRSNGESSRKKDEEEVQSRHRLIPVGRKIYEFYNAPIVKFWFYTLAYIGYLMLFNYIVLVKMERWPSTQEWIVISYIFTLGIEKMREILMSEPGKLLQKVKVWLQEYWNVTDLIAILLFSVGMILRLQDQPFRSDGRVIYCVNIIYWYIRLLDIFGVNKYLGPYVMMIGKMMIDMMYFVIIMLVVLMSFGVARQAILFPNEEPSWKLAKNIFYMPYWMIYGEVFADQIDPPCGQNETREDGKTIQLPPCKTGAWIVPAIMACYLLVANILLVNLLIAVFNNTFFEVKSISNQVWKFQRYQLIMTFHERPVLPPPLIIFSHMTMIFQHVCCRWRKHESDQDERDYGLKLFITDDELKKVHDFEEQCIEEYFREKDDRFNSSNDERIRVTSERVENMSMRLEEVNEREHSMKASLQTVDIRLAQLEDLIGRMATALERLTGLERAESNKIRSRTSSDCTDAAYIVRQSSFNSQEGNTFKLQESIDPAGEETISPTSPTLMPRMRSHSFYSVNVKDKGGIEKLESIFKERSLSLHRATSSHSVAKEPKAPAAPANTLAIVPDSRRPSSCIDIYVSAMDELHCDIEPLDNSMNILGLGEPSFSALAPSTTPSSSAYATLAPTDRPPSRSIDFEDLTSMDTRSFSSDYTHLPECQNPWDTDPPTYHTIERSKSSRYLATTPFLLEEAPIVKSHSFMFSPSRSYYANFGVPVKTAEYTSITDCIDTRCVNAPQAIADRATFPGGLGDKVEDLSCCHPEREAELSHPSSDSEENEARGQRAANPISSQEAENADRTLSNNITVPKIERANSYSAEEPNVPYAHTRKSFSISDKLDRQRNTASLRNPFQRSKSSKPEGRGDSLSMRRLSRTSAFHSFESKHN

The first experiment has as its target mouse TRPM3α2 (mTRPM3) ion channel (Mus musculus (Mouse), UniProt J9SQF3). The experiment in a line: TRPM3 ion channel driven Ca2+ uptake, Fluo-4 AM assay, mTRPM3alpha2 overexpressing flip-in HEK293 cells stimulated with pregnenolone sulfate. Conditions: PS (50 μM) stimulated, cpds. 500-599. In kind it is cell-based. In short, it runs like this:
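Read-out is Ca2+ influx via Fluo-4 AM fluorescence at 485/535 nm, taken right after seeding ~2000 cells/well onto compound with 50 μM PS. Inhibition computed from RFU between vehicle-stimulated and positive-control-inhibitor wells; cells were mTRPM3α2-overexpressing flip-in HEK293.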
The term IC50 denotes the concentration at which inhibition is half-maximal. In turn, `Cc1oc2ccc(OCc3ccnn3C)cc2c1C(=O)NC1(C(N)=O)COC1` [compound 579, N-(3-carbamoyloxetan-3-yl)-2-methyl-5-((1-methyl-1H-pyrazol-5-yl)methoxy)benzofuran-3-carboxamide] returned a 50% inhibitory concentration (IC50) below 1 µM.
Compound `Cc1ncc(COc2ccc3oc(C)c(C(=O)NC4(C(N)=O)COC4)c3c2)s1` [compound 580, N-(3-carbamoyloxetan-3-yl)-2-methyl-5-((2-methylthiazol-5-yl)methoxy)benzofuran-3-carboxamide] came in with a 50% inhibitory concentration (IC50) below 1 µM.
`Cc1oc2ccc(OCc3ccccn3)cc2c1C(=O)NC1(C(N)=O)COC1` [compound 581, N-(3-carbamoyloxetan-3-yl)-2-methyl-5-(pyridin-2-ylmethoxy)benzofuran-3-carboxamide] displayed a half-inhibitory concentration (IC50) below 1 µM.
Turning to `Cc1oc2ccc(OCc3nccs3)cc2c1C(=O)NC1(C(N)=O)COC1` [compound 582, N-(3-carbamoyloxetan-3-yl)-2-methyl-5-(thiazol-2-ylmethoxy)benzofuran-3-carboxamide], the IC50 was below 1 µM.
With `Cc1ncsc1COc1ccc2oc(C)c(C(=O)NC3(C(N)=O)COC3)c2c1F` [compound 583, N-(3-carbamoyloxetan-3-yl)-4-fluoro-2-methyl-5-((4-methylthiazol-5-yl)methoxy)benzofuran-3-carboxamide], the IC50 is below 1 µM.
`Cc1oc2ccc(OCc3cccnc3C(F)F)cc2c1C(=O)NC1(C(N)=O)COC1` [compound 584, N-(3-carbamoyloxetan-3-yl)-5-((2-(difluoromethyl)pyridin-3-yl)methoxy)-2-methylbenzofuran-3-carboxamide] showed an IC50 below 1 µM.
The same measure, in the same setting: with `Cc1oc2ccc(OCc3cccnc3O)cc2c1C(=O)NC1(C(N)=O)COC1` [compound 585, N-(3-carbamoyloxetan-3-yl)-5-((2-hydroxypyridin-3-yl)methoxy)-2-methylbenzofuran-3-carboxamide] the figure was below 1 µM; with `COc1ncccc1COc1ccc2oc(C)c(C(=O)NC3(C(N)=O)COC3)c2c1` [compound 586, N-(3-carbamoyloxetan-3-yl)-5-((2-methoxypyridin-3-yl)methoxy)-2-methylbenzofuran-3-carboxamide], below 1 µM; with `Cc1ncsc1COc1cc2c(C(=O)NC3(C(N)=O)COC3)c(C)oc2cc1F` [compound 587, N-(3-carbamoyloxetan-3-yl)-6-fluoro-2-methyl-5-((4-methylthiazol-5-yl)methoxy)benzofuran-3-carboxamide], below 1 µM.
The same measure, in the same setting: the result for `Cc1ncsc1COc1cc(F)c2oc(C)c(C(=O)NC3(C(N)=O)COC3)c2c1` [compound 588, N-(3-carbamoyloxetan-3-yl)-7-fluoro-2-methyl-5-((4-methylthiazol-5-yl)methoxy)benzofuran-3c-arboxamide] reads below 1 µM.
The same measure, in the same setting: the result for `Cc1ncsc1COc1ccc2oc(C)c(C(=O)N(C)C3(C(N)=O)COC3)c2c1` [compound 589, N-(3-carbamoyloxetan-3-yl)-N,2-dimethyl-5-((4-methylthiazol-5-yl)methoxy)benzofuran-3-carboxamide] reads 1 to 20 µM.

Still in this experiment, the particulars now being: PS (50 μM) stimulated, cpds. 608-666.
`Cc1ncsc1COc1ccc2oc(C)c(C(=O)NCC(C)(C)CO)c2c1` [compound 602, N-(3-hydroxy-2,2-dimethylpropyl)-2-methyl-5-((4-methylthiazol-5-yl)methoxy)benzofuran-3-carboxamide] gave an IC50 below 1 µM.
Regarding `Cc1oc2ccc(OCc3cn(C)nn3)cc2c1C(=O)NC1(CO)CCOCC1` [compound 604, N-(4-(hydroxymethyl)tetrahydro-2H-pyran-4-yl) -2-methyl-5-((1-methyl-1H-1,2,3-triazol-4-yl)methoxy)benzofuran-3-carboxamide], the IC50 is above 20 µM.
The same measure, in the same setting: the result for `Cc1oc2ccc(OCc3cnnn3C)cc2c1C(=O)NC1(CO)CCOCC1` [compound 605, N-(4-(hydroxymethyl)tetrahydro-2H-pyran-4-yl)-2-methyl-5-((1-methyl-1H-1,2,3-triazol-5-yl)methoxy)benzofuran-3-carboxamide] reads above 20 µM.
